For assay [1], the system named is HSV-1. The assay is described as follows: HSV Antiviral (ELISA) Assay. In kind it is cell-based, herpes simplex virus type 1. The settings on record: Human alphaherpesvirus 1, Vero, Vero cells, HSV-1; read-out: IC50 Ug/ml HSV. Summed up: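 Replication measured as glycoprotein D signal in fixed cells: anti-gD antibody plus β-galactosidase-linked secondary, fluorogenic substrate read at 365/450 nm. Vero cells (2% FBS DMEM) received compound 30 min pre-infection, HSV-1 MOI 0.006, ~24 h incubation; IC50 relative to no-compound fluorescence.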

In assay [2] the test system is HCMV wild-type. Nature of the assay: HCMV yield assay. The class given is cell-based, human cytomegalovirus. As to conditions: Human betaherpesvirus 5, Fibroblast, human foreskin fibroblasts; read-out: IC50 Ug/ml HCMV. In short, it runs like this: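 Value is the compound amount cutting virus yield titer by 50% (IC50) or 90% (IC90). Human foreskin fibroblasts infected with wild-type HCMV (MOI typically 0.2) under varying compound; progeny harvested day 3, titered compound-free on fibroblasts, plaques scored at 2 weeks.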

Assay [3] deals with VZV strain Ellen. Nature of the assay: VZV Antiviral (ELISA) Assay. In kind it is cell-based, varicella-zoster virus. As to conditions: Human alphaherpesvirus 3, Fibroblast, human foreskin fibroblast cells; for IC50: read-out: IC50 Ug/ml VZV; for inhibition at 10 µg/mL: read-out: % inhibition 10 ug/ml VZV, 10 ug/ml. Summed up: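 Cell-based ELISA: infected/uninfected HFF mix (VZV Ellen, MOI <0.1) exposed to compound in DMEM/2% FBS for 3 days at 37° C. Anti-gpII monoclonal plus β-galactosidase-linked secondary, detected as 4-methylumbelliferone fluorescence; IC50 derived by comparing fluorescence with versus without compound.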
In general terms: An ELISA detects its analyte on a solid surface through an enzyme-linked reagent.

Converted amounts (≈) assume the structure as drawn.

For the compound `CC(=O)Nc1ccc(NC(=S)Nc2cc(Cl)c(OCC(=O)OC(C)(C)C)c(Cl)c2)cc1` [Example 887, {4-[3-(4-Acetylamino-phenyl)-thioureido]-2,6-dichloro-phenoxy}-acetic acid tert-butyl ester], the IC50 is 45 µg/mL (≈ 92.9 µM) in assay [1], above 10 µg/mL in assay [2] and above 10 µg/mL in assay [3]. In assay [3], the inhibition at 10 µg/mL was 38%.

Turning to `CC(=O)Nc1ccc(NC(=S)Nc2ccc(C)c(Cl)c2)cc1` [Example 889, N-{4-[3-(3-Chloro-4-methyl-phenyl)-thioureido]-phenyl}-acetamide], the IC50 in assay [1] was 2 µg/mL (≈ 5.99 µM); in assay [2] it was 1.2 µg/mL (≈ 3.59 µM); in assay [3] it was above 10 µg/mL. Further, the inhibition at 10 µg/mL in assay [3] came out at 1%.

As to `CC(=O)Nc1ccc(NC(=S)Nc2cc(Cl)ccc2C)cc1` [Example 890, N-{4-[3-(5-Chloro-2-methyl-phenyl)-thioureido]-phenyl}-acetamide], the IC50 in assay [1] was 20 µg/mL (≈ 59.9 µM); in assay [2] it was 35 µg/mL (≈ 105 µM); in assay [3] it was above 10 µg/mL. For the same compound, the inhibition at 10 µg/mL in assay [3] is 20%.

Turning to `CC(=O)Nc1ccc(NC(=S)Nc2cc(Cl)c(C)c(Cl)c2)cc1` [Example 892, N-{4-[3-(3,5-Dichloro-4-methyl-phenyl)-thioureido]-phenyl}-acetamide], the IC50 is 10 µg/mL (≈ 27.2 µM) in assay [1], 1 µg/mL (≈ 2.72 µM) in assay [2] and above 10 µg/mL in assay [3]. In addition, the inhibition at 10 µg/mL in assay [3] stood at 25%.

Consider `COc1c(I)cc(NC(=S)Nc2ccc(NC(C)=O)cc2)c(OC)c1I` [Example 893, N-{4-[3-(3,5-Diiodo-2,4-dimethoxy-phenyl)-thioureido]-phenyl}-acetamide], for which the values for the IC50 in assay [1], in assay [2] and in assay [3] were 20 µg/mL (≈ 33.5 µM), 7 µg/mL (≈ 11.7 µM) and 2.5 µg/mL (≈ 4.19 µM), respectively. In addition, the inhibition at 10 µg/mL in assay [3] came out at 76%.

As for `COc1c(Br)cc(NC(=S)Nc2ccc(NC(C)=O)cc2)c(OC)c1Br` [Example 894, N-{4-[3-(3,5-Dibromo-2,4-dimethoxy-phenyl)-thioureido]-phenyl}-acetamide], the IC50 was 12 µg/mL (≈ 23.8 µM) in assay [1], 7 µg/mL (≈ 13.9 µM) in assay [2] and above 10 µg/mL in assay [3]. Further, the inhibition at 10 µg/mL in assay [3] stood at 56%.

On to `COc1ccc(NC(=S)Nc2ccc(NC(C)=O)cc2)c(OC)n1` [Example 896, N-{4-[3-(2,6-Dimethoxy-pyridin-3-yl)-thioureido]-phenyl}-acetamide], for which the IC50 in assay [1] was 12 µg/mL (≈ 34.6 µM); in assay [2], above 50 µg/mL; in assay [3], above 10 µg/mL. Besides, the inhibition at 10 µg/mL in assay [3] amounted to 17%.

For the compound `CC(=O)Nc1ccc(NC(=S)Nc2cc(Cl)c(OCCOC(C)=O)c(Cl)c2)cc1` [Example 897, Acetic acid 2-{4-[3-(4-acetylamino-phenyl)-thioureido]-2,6-dichloro-phenoxy}-ethyl ester], the IC50 was 40 µg/mL (≈ 87.7 µM) in assay [1], above 10 µg/mL in assay [2] and above 10 µg/mL in assay [3]. In assay [3], the inhibition at 10 µg/mL was found to be 33%.

As to `CC(=O)Nc1ccc(NC(=S)Nc2ccc(C(=O)O)c(Cl)c2)cc1` [Example 898, 4-[3-(4-Acetylamino-phenyl)-thioureido]-2-chloro-benzoic acid], the IC50 in assay [1] was above 50 µg/mL; in assay [2], above 50 µg/mL; in assay [3], above 10 µg/mL. Also, in assay [3], the inhibition at 10 µg/mL turned out to be 0%.

On to `CC(=O)Nc1ccc(NC(=S)Nc2ccc(C#N)c(Cl)c2)cc1` [Example 899, N-{4-[3-(3-Chloro-4-cyano-phenyl)-thioureido]-phenyl}-acetamide], for which the IC50 in assay [1] is 10 µg/mL (≈ 29 µM); in assay [2], above 10 µg/mL; in assay [3] it was above 10 µg/mL. Moreover, the inhibition at 10 µg/mL in assay [3] stood at 7%.

`CC(=O)Nc1ccc(NC(=S)Nc2cc(Cl)c(-n3cccc3)cc2Oc2ccc(Cl)cc2)cc1` [Example 900, N-(4-{3-[5-Chloro-2-(4-chloro-phenoxy)-4-pyrrol-1-yl-phenyl]-thioureido}-phenyl)-acetamide]: the results for the IC50 in assay [1], in assay [2] and in assay [3] were above 10 µg/mL, 2 µg/mL (≈ 3.91 µM) and 2.5 µg/mL (≈ 4.89 µM), respectively. Moreover, the inhibition at 10 µg/mL in assay [3] was 124%.

For the compound `CC(=O)Nc1ccc(NC(=S)Nc2ccc(Cl)c(Cl)c2)cc1` [Example 901, N-{4-[3-(3,4-Dichloro-phenyl)-thioureido]-phenyl}-acetamide], the IC50 was 1.5 µg/mL (≈ 4.23 µM) in assay [1], 2.5 µg/mL (≈ 7.06 µM) in assay [2] and above 10 µg/mL in assay [3]. The inhibition at 10 µg/mL in assay [3] came to 1%.

In the case of `CC(=O)Nc1ccc(NC(=S)Nc2ccc(F)c(Cl)c2)cc1` [Example 902, N-{4-[3-(3-Chloro-4-fluoro-phenyl)-thioureido]-phenyl}-acetamide], the IC50 in assay [1] was 4 µg/mL (≈ 11.8 µM); in assay [2] it was 12 µg/mL (≈ 35.5 µM); in assay [3], above 10 µg/mL. The inhibition at 10 µg/mL in assay [3] was 1%.

Consider `CC(=O)Nc1ccc(NC(=S)Nc2ccc(I)c(Cl)c2)cc1` [Example 903, N-{4-[3-(3-Chloro-4-iodo-phenyl)-thioureido]-phenyl}-acetamide], for which the figures for the IC50 in assay [1], in assay [2] and in assay [3] were 10 µg/mL (≈ 22.4 µM), 0.3 µg/mL (≈ 0.673 µM) and above 10 µg/mL, respectively. Also, in assay [3], the inhibition at 10 µg/mL stood at 26%.

For `CC(=O)Nc1ccc(NC(=S)Nc2ccc(Br)c(Cl)c2)cc1` [Example 904, N-{4-[3-(4-Bromo-3-chloro-phenyl)-thioureido]-phenyl}-acetamide], the values for the IC50 in assay [1], in assay [2] and in assay [3] were 4 µg/mL (≈ 10 µM), 1 µg/mL (≈ 2.51 µM) and above 10 µg/mL, respectively. The inhibition at 10 µg/mL in assay [3] was 26%.

As to `CC(=O)Nc1ccc(NC(=S)Nc2ccc(N(CCO)CCO)c(Cl)c2)cc1` [Example 905, N-[4-(3-{4-[Bis-(2-hydroxy-ethyl)-amino]-3-chloro-phenyl}-thioureido)-phenyl]-acetamide], the values for the IC50 in assay [1], in assay [2] and in assay [3] were above 50 µg/mL, above 50 µg/mL and above 10 µg/mL, respectively. Further, the inhibition at 10 µg/mL in assay [3] came out at 36%.

`CCCCCCN(C)c1ccc(NC(=S)Nc2ccc(NC(C)=O)cc2)cc1Cl` [Example 906, N-(4-{3-[3-Chloro-4-(hexyl-methyl-amino)-phenyl]-thioureido}-phenyl)-acetamide]: the IC50 was above 10 µg/mL in assay [1], 1.5 µg/mL (≈ 3.46 µM) in assay [2] and above 10 µg/mL in assay [3]. Besides, in assay [3], the inhibition at 10 µg/mL was 32%.

Consider `CC(=O)Nc1ccc(NC(=S)Nc2ccc(N(C)CC(C)C)c(Cl)c2)cc1` [Example 907, N-(4-{3-[3-Chloro-4-(isobutyl-methyl-amino)-phenyl]-thioureido}-phenyl)-acetamide], for which the IC50 is above 10 µg/mL in assay [1], 3 µg/mL (≈ 7.41 µM) in assay [2] and above 10 µg/mL in assay [3]. Besides, the inhibition at 10 µg/mL in assay [3] was 19%.

`CC(=O)Nc1ccc(NC(=S)Nc2ccc(C(F)(F)F)c(Cl)c2)cc1` [Example 908, N-{4-[3-(3-Chloro-4-trifluoromethyl-phenyl)-thioureido]-phenyl}-acetamide]: the IC50 in assay [1] is above 10 µg/mL; in assay [2] it was 0.6 µg/mL (≈ 1.55 µM); in assay [3] it was above 10 µg/mL. In addition, the inhibition at 10 µg/mL in assay [3] was 36%.

In the case of `CC(=O)Nc1ccc(NC(=S)Nc2ccc(-c3ccno3)c(Cl)c2)cc1` [Example 924, N-{4-[3-(3-Chloro-4-isoxazol-5-yl-phenyl)-thioureido]-phenyl}-acetamide], the IC50 is above 10 µg/mL in assay [1], 0.9 µg/mL (≈ 2.33 µM) in assay [2] and above 10 µg/mL in assay [3]. Also, the inhibition at 10 µg/mL in assay [3] was found to be 4%.

On to `CC(=O)Nc1ccc(NC(=S)Nc2ccc(-c3cc[nH]n3)c(Cl)c2)cc1` [Example 925, N-(4-{3-[3-Chloro-4-(1H-pyrazol-3-yl)-phenyl]-thioureido}-phenyl)-acetamide], for which the IC50 in assay [1] was above 10 µg/mL; in assay [2] it was 3.5 µg/mL (≈ 9.07 µM); in assay [3] it was above 10 µg/mL. Moreover, the inhibition at 10 µg/mL in assay [3] turned out to be 32%.

Turning to `CC(=O)Nc1ccc(NC(=S)Nc2cccc(Cl)c2Cl)cc1` [Example 926, N-{4-[3-(2,3-Dichloro-phenyl)-thioureido]-phenyl}-acetamide], the IC50 was above 10 µg/mL in assay [1], 10 µg/mL (≈ 28.2 µM) in assay [2] and above 10 µg/mL in assay [3]. For the same compound, the inhibition at 10 µg/mL in assay [3] is 16%.

Take `CC(=O)Nc1ccc(NC(=S)Nc2cc(Cl)ccc2Cl)cc1` [Example 930, N-{4-[3-(2,5-Dichloro-phenyl)-thioureido]-phenyl}-acetamide]: the IC50 was 10 µg/mL (≈ 28.2 µM) in assay [1], above 10 µg/mL in assay [2] and above 10 µg/mL in assay [3]. In assay [3], the inhibition at 10 µg/mL is 42%.

As for `CC(=O)Nc1ccc(NC(=S)Nc2cc(Cl)cc(Cl)c2)cc1` [Example 933, N-{4-[3-(3,5-Dichloro-phenyl)-thioureido]-phenyl}-acetamide], the IC50 in assay [1] is above 10 µg/mL; in assay [2], 1.2 µg/mL (≈ 3.39 µM); in assay [3] it was above 10 µg/mL. In addition, in assay [3], the inhibition at 10 µg/mL amounted to 21%.

With `CC(=O)Nc1ccc(NC(=S)Nc2cc(Cl)c(Cl)c(Cl)c2)cc1` [Example 936, N-{4-[3-(3,4,5-Trichloro-phenyl)-thioureido]-phenyl}-acetamide], the results for the IC50 in assay [1], in assay [2] and in assay [3] were 1.5 µg/mL (≈ 3.86 µM), 1 µg/mL (≈ 2.57 µM) and above 10 µg/mL, respectively. In addition, the inhibition at 10 µg/mL in assay [3] was 51%.

For the origin of these results see US6335350B1, “Acetamide and substituted acetamide-containing thiourea inhibitors of herpes viruses” (American Home Products Corporation, priority 1998, dated 2002).
